Patent publication US20260335323A1, “CHIMERIC MOLECULE” (UCL Business Ltd, priority 2023, published 2026)

Target: T1, ULK1 (Homo sapiens, UniProt O75385)
T1 sequence (O75385 1-1050): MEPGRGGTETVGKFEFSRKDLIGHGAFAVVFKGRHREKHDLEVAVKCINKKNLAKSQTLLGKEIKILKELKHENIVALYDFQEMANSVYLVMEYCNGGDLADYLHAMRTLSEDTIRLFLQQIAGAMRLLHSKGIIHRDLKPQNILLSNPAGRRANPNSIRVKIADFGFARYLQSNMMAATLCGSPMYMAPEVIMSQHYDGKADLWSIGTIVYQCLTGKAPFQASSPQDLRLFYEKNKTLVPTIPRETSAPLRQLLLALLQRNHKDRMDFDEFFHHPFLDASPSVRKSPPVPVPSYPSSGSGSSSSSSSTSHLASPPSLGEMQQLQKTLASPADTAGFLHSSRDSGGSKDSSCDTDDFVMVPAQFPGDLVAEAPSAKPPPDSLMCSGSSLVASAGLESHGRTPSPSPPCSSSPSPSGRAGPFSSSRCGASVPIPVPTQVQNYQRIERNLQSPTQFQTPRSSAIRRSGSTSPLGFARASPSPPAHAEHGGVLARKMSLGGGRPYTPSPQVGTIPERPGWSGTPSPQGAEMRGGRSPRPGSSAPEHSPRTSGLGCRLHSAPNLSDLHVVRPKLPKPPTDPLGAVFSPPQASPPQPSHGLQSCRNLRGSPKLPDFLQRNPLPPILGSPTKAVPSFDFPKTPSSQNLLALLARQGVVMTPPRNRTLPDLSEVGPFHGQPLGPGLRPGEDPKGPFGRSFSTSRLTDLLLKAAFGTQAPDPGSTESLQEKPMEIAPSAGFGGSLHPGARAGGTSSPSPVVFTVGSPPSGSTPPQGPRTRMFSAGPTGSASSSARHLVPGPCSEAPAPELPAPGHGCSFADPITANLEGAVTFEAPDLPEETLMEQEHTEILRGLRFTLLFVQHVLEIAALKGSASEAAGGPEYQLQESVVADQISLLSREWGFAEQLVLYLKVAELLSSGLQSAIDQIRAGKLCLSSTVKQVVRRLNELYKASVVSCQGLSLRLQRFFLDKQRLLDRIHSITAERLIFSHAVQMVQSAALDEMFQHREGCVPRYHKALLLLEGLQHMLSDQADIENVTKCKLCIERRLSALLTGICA
Experiment: ULK1/TOM20 co-localisation immunofluorescence in PANC-1 cells
Format: cell-based
Set-up: pSer317 blot or TOM20 co-localisation
Method: FIG. 5. ULKTACs induce potent mitophagy after colocalisation and local activation of ULK1 at mitochondria (A) Representative immunofluorescence of PANC-1 cells treated with CCCP, ULKTACs or both and immunostained for TOM20 and ULK1 and counterstained with Alexa 488 and 568, respectively. Nuclei stained with Hoechst 33342. (B) Quantification of the colocalised ULK1 to TOM20 spot area of PANC-1 cells treated with DMSO, 5 mM CCCP, 10 mM BL-918, 10 mM BL-918+5 mM CCCP, […] NZ-65, […] NZ-65+5 mM CCCP, […] NZ-66, […] NZ-66+5 mM CCCP, 50 mM TSPO ligand, […] NZ-65+50 mM TSPO ligand, […] NZ-66+50 mM TSPO ligand. (C) Western blot of SH-SY5Y cells treated with 1 mM ULKTACs, 5 mM CCCP or both, probed for Mfn2, b-Actin and Tom20—quantifications are shown in (D) for Mfn2, normalised to Actin. (E) Representative images of SH-SY5Y cells stably expressing the mito-mKeima reporter treated with 3 mM CCCP, NZ-65 or both. Nuclei were stained with Hoechst 33342, healthy mitochondria are shown in green and mitochondria in lysosomes are shown in red. Fold change in mitophagy index over time after treatment for the indicated timepoints with title treatments alone or co-treated with 1.25 mM ULKTAC or 10 mM ULKTAC NZ-65 (F) or NZ-66 (G). Fold change in mitophagy index over time after treatment for the indicated timepoints with DMSO, 1.25 µM NZ-65 or NZ-66±50 µM TSPO ligand under co-treatment with DMSO (H) or 3 μM CCCP (I). […] Normalised to number of nuclei. All data shown are mean±SEM, n=3, *p<0.05, ** p<0.01, *** p<0.001. For colocalisation and TMRM experiments, one-way ANOVA with Dunnett's multiple comparisons test. For western blots, one-way ANOVA with Tukey's multiple comparisons test and unpaired t-test. For mito-mKeima experiment, two-way ANOVA with Tukey's multiple comparisons test.
For TOM20/ULK1 immunofluorescence, cells were seeded in a 384 well PerkinElmer CellCarrier Ultra plate 24 hours prior to treatment with compounds. Cells were treated for 18 hours after which they were fixed with 4% paraformaldehyde (PFA) in phosphate buffered saline (PBS) and blocked with 10% FBS and 0.1% Triton in PBS. Plates were incubated at 4° C. overnight, with 1:400 mouse anti-TOM20 (Santa Cruz, #sc-17764) and 1:400 rabbit anti-ULK1 (Cell Signalling Technologies, #0854). The following day, plates were incubated with 1:1000 goat anti-mouse Alexa 488 (ThermoFisher Scientific, #A-11029), 1:1000 goat anti-rabbit Alexa 568 (ThermoFisher Scientific, #A-11011) and 1.62 μM Hoechst 33342 at room temperature for 1 hour before imaging. For ATP5a/LC3 immunofluorescence, cells were fixed with ice-cold 1:1 MeOH: acetone and blocked with 3% BSA (Sigma-Aldrich, #A3803) in Dulbecco's PBS (D-PBS). Plates were incubated overnight at 4° C. with 1:400 LC3B (D11) XP Rabbit mAb Alexa Fluor 647 Conjugate (Cell Signalling Technologies, #65299) and 1:400 ATP5a (Cell Signalling Technologies, #18023) lightning-linked to Alexa Fluor 488. The following day, plates were incubated with 1.62 […] at room temperature for 1 hour before imaging. Excitation and emission spectra for each channel are as follows: Hoechst 33342=405/435-480 nm, Alexa 488=488/500-550 nm and Alexa 568=561/570-630 nm. Images were acquired at 40× and 63× magnification with water immersion lens.
To understand the temporal kinetics of NZ-65 and NZ-66, we assessed the recruitment of ULK1 to mitochondria, using co-localisation of ULK1 and TOM20 by immunofluorescence. […] After showing the co-localisation of ULK1 to the outer mitochondrial membrane (OMM) after ULKTAC treatment, we wanted to determine whether the ULKTACs induced mitophagy. To do this, we measured changes in Mfn2 under basal conditions and co-treatment with CCCP (FIG. 5C, D).

| SMILES | co-localisation of ULK1 and TOM20 (PANC-1, 18 hours, alone) | co-localisation of ULK1 and TOM20 (PANC-1, CCCP co-treatment) |
| --- | --- | --- |
| O=C(Nc1ccc(F)cc1F)[C@H](NC(=S)Nc1cc(C(F)(F)F)cc(C(F)(F)F)c1)c1ccccc1 [BL-918, reference compound] | neither BL-918 nor the TSPO ligand alone induce co-localisation | – |
| O=C(Nc1cc(C(F)(F)F)cc(C(F)(F)F)c1)N[C@@H](C(=O)Nc1ccc(F)cc1F)c1ccc(OCc2cn(CCOCCOCCNC(=O)C(=O)c3c(-c4ccccc4)[nH]c4ccccc34)nn2)cc1 [NZ-65, (R)-2-(3-(3,5-bis(trifluoromethyl)phenyl)ureido)-N-(2,4-difluorophenyl)-2-(4-((1-(2-(2-(2-(2-oxo-2-(2-phenyl-1H-indol-3-yl)acetamido)ethoxy)ethoxy)ethyl)-1H-1,2,3-triazol-4-yl)methoxy)phenyl) acetamide] | increased co-localisation of ULK1 and TOM20 | enhanced by CCCP co-treatment |
| O=C(Nc1cc(C(F)(F)F)cc(C(F)(F)F)c1)N[C@@H](C(=O)Nc1ccc(F)cc1F)c1ccc(OCc2cn(CCCCCCNC(=O)C(=O)c3c(-c4ccccc4)[nH]c4ccccc34)nn2)cc1 [NZ-66, (R)-2-(3-(3,5-bis(trifluoromethyl)phenyl)ureido)-N-(2,4-difluorophenyl)-2-(4-((1-(6-(2-oxo-2-(2-phenyl-1H-indol-3-yl)acetamido)hexyl)-1H-1,2,3-triazol-4-yl)methoxy)phenyl) acetamide] | increased co-localisation of ULK1 and TOM20 | enhanced by CCCP co-treatment |
